The source of these data is US8246942B2, “Microbicidal compositions” (LANXESS Deutschland GmbH, priority 2000, dated 2012).

The test system of the assay is Pseudomonas fluorescens. Put plainly: Determination of the minimum inhibitory concentration (MIC) against Pseudomonas fluorescens. It counts as cell-based. Particulars: for MIC: Pseudomonas fluorescens, read-out: MIC value against Pseudomonas fluorescens. From the text:
The observed synergism of the active compound mixtures, claimed in the present application, consisting of o-phenylphenol (OPP) and other bactericides can be determined by the following mathematical equation (see F. C. Kull, P. C. Elisman, H. D. Sylwestrowicz and P. K. Mayer, Appl. Microbiol. 9, 538 (1960):
[formula] where • Qa=the amount of component A in the active compound mixture which achieves the desired effect, i.e. no microbial growth. • QA=the amount of component A which, when used on its own, suppresses the growth of the microorganisms. • Qb=the amount of component B in the active compound mixture which suppresses the growth of the microorganisms. • Qb=the amount of component B which, when used on its own, suppresses the growth of the microorganisms.
A synergistic index of <1 indicates a synergistic effect for the active compound mixture.
Determination of the Minimum Inhibitory Concentration (MIC) of Compositions According to the Invention Against Pseudomonas fluerescens

Setting [1] is: Example 2, OPP/Tektamer 38, weight ratios.

Usually MIC stands for the least concentration at which growth counts as inhibited.

SMILES strings stand for the structures. Where two headings read alike, the source gives them in different places.

Regarding `O=[N+]([O-])C(Br)(CO)CO` [BNPD, 2-bromo-2-nitro-1,3-propanediol], the minimal inhibitory concentration (MIC) (Example 1, OPP/BNPD (bronopol), weight ratios) worked out at 35 µg/mL. For the compound `Cn1sccc1=O` [MIT, 2-methyl-2H-isothiazol-3-one], the MIC came out at 30 µg/mL.

For `Oc1ccccc1-c1ccccc1` [OPP, o-phenylphenol], the MIC came out at 500 µg/mL. In addition, under setting [1], the “MIC value against Pseudomonas fluorescens” value was 500 µg/mL. Besides, the “MIC value against Pseudomonas fluorescens” value (Example 3, OPP/MIT, weight ratios) was determined as 500 µg/mL.

On to `N#CCCC(Br)(C#N)CBr` (stereo not drawn) [Tektamer 38, 1,2-dibromo-2,4-dicyanobutane], for which the minimal inhibitory concentration (MIC) under setting [1] is 100 µg/mL.
